Test results from US12655132B2, “Crystal forms of a pyridazinone TRPC inhibitor” (GFB (ABC), LLC, priority 2019, dated 2026).

Test: Stability of crystalline form E at different relative humidities over 3-14 days
Format: physicochemical
Method: Crystalline form E was also tested for stability at different relative humidities over 3-14 days. The results are shown below in Table 3.1

- Stability of Crystalline Form E at Different Relative Humidities (RH): crystal type found (30% RH, 3 days): Type E
- Stability of Crystalline Form E at Different Relative Humidities (RH): crystal type found (30% RH, 7 days): Type E
- Stability of Crystalline Form E at Different Relative Humidities (RH): crystal type found (30% RH, 14 days): Type E + Type F
- Stability of Crystalline Form E at Different Relative Humidities (RH): crystal type found (50% RH, 3 days): Type E
- Stability of Crystalline Form E at Different Relative Humidities (RH): crystal type found (50% RH, 7 days): Type E
- Stability of Crystalline Form E at Different Relative Humidities (RH): crystal type found (50% RH, 14 days): Type E
- Stability of Crystalline Form E at Different Relative Humidities (RH): crystal type found (60% RH, 3 days): Type E
- Stability of Crystalline Form E at Different Relative Humidities (RH): crystal type found (60% RH, 7 days): Type E
- Stability of Crystalline Form E at Different Relative Humidities (RH): crystal type found (60% RH, 14 days): Type E
- Stability of Crystalline Form E at Different Relative Humidities (RH): crystal type found (92.5% RH, 3 days): Type E
- Stability of Crystalline Form E at Different Relative Humidities (RH): crystal type found (92.5% RH, 7 days): Type E
- Stability of Crystalline Form E at Different Relative Humidities (RH): crystal type found (92.5% RH, 14 days): Type E
- Stability at low relative humidity (conclusion in words) (storage for 14 days at 30% relative humidity, appearance of Type F): unstable
SMILES: O=c1[nH]ncc(N2CCc3c(ncnc3Oc3ccc(F)cc3C(F)(F)F)C2)c1Cl [Crystalline Form E, 4-chloro-5-(4-(4-fluoro-2-(trifluoromethyl)phenoxy)-5,8-dihydropyrido[3,4-d]pyrimidin-7(6H)-yl)pyridazin-3(2H)-one]
